Measured values from US7026281B1, “Antagonistic analogs of GH-RH inhibiting IGF-I and -II” (The Administrators of the Tulane Educational Fund, priority 1998, dated 2006).
Square brackets hold non-standard residues; d marks the D form. Peptide text beside a SMILES is read from it. * marks the point of attachment. Acetyl(1-naphthyl) = O=C(Cc1cccc2ccccc12)*; Phe(4-Cl) = N[C@@H](Cc1ccc(Cl)cc1)C(=O)O; hArg = N=C(N)NCCCC[C@H](N)C(=O)O; Nle = CCCC[C@H](N)C(=O)O; Abu = CC[C@H](N)C(=O)O; PhAc = O=C(Cc1ccccc1)*

Experiments:
[1] = system: hGH-RH(1–29)NH2 induced GH release; assay: Inhibition of GH release in superfused rat pituitary system; type: cell-based; conditions: antagonist 30 nM; for Inhibition of GH release (%) 30 min: 1 nM hGH-RH(1–29)NH2 30 min later; for Inhibition of GH release (%) 60 min: 1 nM hGH-RH(1–29)NH2 60 min later; for Inhibition of GH release (%) 90 min: 1 nM hGH-RH(1–29)NH2 90 min later; for Inhibition of GH release (%) 120 min: 1 nM hGH-RH(1–29)NH2 120 min later; for Inhibition of GH release (%) 0 min: 1 nM hGH-RH(1–29)NH2 at 0 min
Protocol: Superfused Rat Pituitary System.
The analogs were tested in vitro in a test described earlier (S. Vigh and A. V. Schally, Peptides 5:241–347, 1984) with modification (Z. Rekasi and A. V. Schally, P.N.A.S. 90:2146–2149, 1993).
Briefly, the cells are preincubated with peptides for 9 minutes (3 mL) at various concentrations. Immediately after the incubation, 1 nM hGH-RH(1–29)NH2 is administered for 3 minutes (1 mL) [0 minute response]. To check the duration of the antagonistic effect of the analogue, 1 nM hGH-RH(1–29)NH2 is applied 30, 60, 90, and 120 minutes later for 3 minutes [30, 60, 90, 120 min responses]. Net integral values of the GH responses are evaluated. GH responses are compared to and expressed as percent of the original GH response induced by 1 nM GH-RH(1–29)NH2. The effect of the new antagonists are compared to that of [Ac-Tyr^1,D-Arg^2]hGH-RH(1–29)NH2, the “Standard antagonist”.
Growth Hormone Radio-immunoassay.
Rat GH levels in aliquots of undiluted and diluted superfusion samples were measured by double-antibody radioimmunoassay using materials supplied by the National Hormone and Pituitary Program, Baltimore, Md. The results of RIA were analyzed with a computer program developed in our institute (V. Csernus and A. V. Schally, in Neuroendocrine Research Methods, Harwood Academic (Greenstein, B. D. ed., London, pp. 71–109, 1991), hereby incorporated by reference. Inter-assay variation was less than 15% and intra-assay variation was less than 10%.

[2] = biological target: T1, rat pituitary GH-RH receptors (Rattus norvegicus, UniProt Q02644); assay: GH-RH radioreceptor binding assay, rat anterior pituitary membrane homogenates; conditions: for Ki: competition with [His1,125I-Tyr10,Nle27]hGH-RH(1–32)NH2; for R.A. (relative affinity compared to Standard antagonist): ratio of Ki values
T1 construct: from tissue; host or cells: anterior pituitary of male Sprague-Dawley rats, crude membrane homogenates
T1 sequence (Q02644 23-464): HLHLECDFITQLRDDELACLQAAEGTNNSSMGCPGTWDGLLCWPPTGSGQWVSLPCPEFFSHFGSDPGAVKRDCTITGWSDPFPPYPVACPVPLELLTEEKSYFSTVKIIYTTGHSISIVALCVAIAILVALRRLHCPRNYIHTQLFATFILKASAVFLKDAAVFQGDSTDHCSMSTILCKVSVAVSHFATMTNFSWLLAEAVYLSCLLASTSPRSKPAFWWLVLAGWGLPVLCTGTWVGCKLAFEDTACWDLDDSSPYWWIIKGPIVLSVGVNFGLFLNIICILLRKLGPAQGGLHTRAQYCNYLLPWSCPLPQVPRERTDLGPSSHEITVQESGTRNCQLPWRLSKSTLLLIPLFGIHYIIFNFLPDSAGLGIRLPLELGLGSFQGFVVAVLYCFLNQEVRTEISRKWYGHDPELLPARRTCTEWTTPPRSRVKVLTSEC
Protocol: GH-RH Binding Assay. A sensitive radioreceptor binding assay was developed to determine the binding characteristics of the antagonists of GH-RH (G. Halmos, A. V. Schally et al., Receptor 3, 87–97, 1993), hereby incorporated by reference. The assay is based on binding of labelled [His^1,Nle^27]hGH-RH(1–32)NH2 to rat anterior pituitary membrane homogenates. Iodinated derivatives of [His^1,Nle^27]hGH-RH(1–32)NH2 are prepared by the chloramine-T method (F. C. Greenwood et al., Biochemistry 89:114–123, 1963), hereby incorporated by reference. Pituitaries from male Sprague-Dawley rats (250–300 g) are used to prepare crude membranes. For saturation binding analyses, membrane homogenates are incubated with at least 6 concentrations of [His^1,^125I-Tyr^10,Nle^27]hGH-RH(1–32) NH2, ranging from 0.005 to 0.35 nM in the presence or absence of excess unlabelled peptide (1 μM).
The pellet is counted for radioactivity in a γ-counter. The affinities of the antagonist peptides tested to rat pituitary GH-RH receptors are determined in competitive binding experiments. The final binding affinities are estimated by Ki (dissociation constant of the inhibitor-receptor complex) and are determined by the Ligand PC and McPherson computer programs of Munson and Rodbard (P. J. Munson and D. Rodbard, Anal. Biochem. 107. 220–239, 1980). Relative affinities compared to [Ac-Tyr^1,D-Arg^2]hGH-RH(1–29)NH2, the Standard antagonist, are calculated as the […].

[3] = system: GH release stimulated by hGH-RH(1–29)NH2; assay: In vivo inhibition of serum GH response in rats; design: species or system rat
Protocol: GH-RH antagonistic effect of the analogs was tested on young male Sprague-Dawley rats (200–250 g). In each experiment, 5 groups of 7 animals each were used. The compounds (80 μg/kg) and GH-RH(1–29)NH2 (3 μg/kg) were dissolved in 5.5% mannitol and given intravenously to the jugular vein of the rats under Nembutal anesthesia. The time elapsed between the administrations of the antagonist and GH-RH varied between groups, according to the following schedule. The first group of animals received GH-RH injection 5 min after the administration of the antagonist; for the second, third and fourth group of animals, the time interval elapsed between the injection of the antagonist and that of GH-RH was 15, 30, and 60 min, respectively. The control group was first injected with the solvent alone instead of the antagonist, followed by a GH-RH injection 5 min later.
0.4 mL blood samples were taken for GH RIA before the administration of the antagonist (“blood0”), and 5 min after the injection of GH-RH (“blood1”). The GH response in each group was calculated as rGH=(GHblood1/GHblood0), mean±S.E.M. of the individual differences. Relative inhibition of GH response (%) in each group treated was calculated as […].

Ki [2] [nM] | R.A. (relative affinity compared to Standard antagonist) [2] | Compound | Inhibition of GH release (%) 30 min [1] [%] | Inhibition of GH release (%) 60 min [1] [%] | Inhibition of GH release (%) 90 min [1] [%] | Inhibition of GH release (%) 120 min [1] [%] | Inhibition of GH release (%) 0 min [1] [%] | Inhibition of the GH release stimulated by hGH-RH(1–29)NH2 (in words) ([3]; 80 μg/kg i.v., rats) | Relative inhibition % of GH response ([3]; antagonist 80 μg/kg i.v. 5 min before GH-RH) [%] | Relative inhibition % of GH response ([3]; antagonist 80 μg/kg i.v. 15 min before GH-RH) [%] | GH response mean ± S.E.M. ([3]; antagonist 80 μg/kg i.v. 15 min before GH-RH 3 μg/kg) | Relative inhibition % of GH response ([3]; antagonist 80 μg/kg i.v. 30 min before GH-RH) [%] | GH response mean ± S.E.M. ([3]; antagonist 80 μg/kg i.v. 30 min before GH-RH 3 μg/kg) | Relative inhibition % of GH response ([3]; antagonist 80 μg/kg i.v. 60 min before GH-RH) [%] | GH response mean ± S.E.M. ([3]; antagonist 80 μg/kg i.v. 60 min before GH-RH 3 μg/kg) | GH response mean ± S.E.M. ([3]; rGH=GHblood1/GHblood0, antagonist 80 μg/kg i.v. 5 min before GH-RH 3 μg/kg)
0.036 | 82 | CCCC[C@H](NC(=O)[C@@H](NC(=O)[C@H](CC(=O)O)NC(=O)[C@H](CCC(N)=O)NC(=O)[C@H](CC(C)C)NC(=O)[C@H](CC(C)C)NC(=O)[C@H](CCCCN)NC(=O)[C@H](CCCNC(=N)N)NC(=O)[C@H](C)NC(=O)[C@H](CO)NC(=O)[C@H](CC(C)C)NC(=O)[C@H](CCC(N)=O)NC(=O)[C@H](CC)NC(=O)[C@H](CC(C)C)NC(=O)[C@@H](NC(=O)[C@H](CCCCN)NC(=O)[C@H](CCCNC(=N)N)NC(=O)[C@H](Cc1ccc(O)cc1)NC(=O)[C@H](CCCNC(=N)N)NC(=O)[C@H](CC(N)=O)NC(=O)[C@@H](NC(=O)[C@H](Cc1ccc(Cl)cc1)NC(=O)[C@@H](NC(=O)[C@H](C)NC(=O)[C@H](CC(=O)O)NC(=O)[C@@H](CCCNC(=N)N)NC(=O)[C@H](Cc1ccc(O)cc1)NC(=O)Cc1cccc2ccccc12)[C@@H](C)CC)[C@@H](C)O)C(C)C)[C@@H](C)CC)C(=O)N[C@H](CCCNC(=N)N)C(=O)N[C@@H](CCCCNC(=N)N)C(N)=O [Peptide 5, [Nac^0, D-Arg^2, Phe(pCl)^6, Arg^9, Abu^15, Nle^27, D-Arg^28, Har^29]hGH-RH(1–29)NH2] ({Acetyl(1-naphthyl)}-Y[dR]DAI[Phe(4-Cl)]TNRYRKVL[Abu]QLSARKLLQDI[Nle][dR][hArg]-NH2) | 77 | 59 | 58 | 50 | 79 | – | – | – | – | – | – | – | – | –
0.107 | 27 | CCCC[C@H](NC(=O)[C@@H](NC(=O)[C@H](CC(=O)O)NC(=O)[C@H](CCC(N)=O)NC(=O)[C@H](CC(C)C)NC(=O)[C@H](CC(C)C)NC(=O)[C@H](CCCCN)NC(=O)[C@H](CCCNC(=N)N)NC(=O)[C@H](C)NC(=O)[C@H](CO)NC(=O)[C@H](CC(C)C)NC(=O)[C@H](CCCNC(=N)N)NC(=O)[C@H](CC)NC(=O)[C@H](CC(C)C)NC(=O)[C@@H](NC(=O)[C@H](CCCCN)NC(=O)[C@H](CCCNC(=N)N)NC(=O)[C@H](Cc1ccc(O)cc1)NC(=O)[C@H](CO)NC(=O)[C@H](CC(N)=O)NC(=O)[C@@H](NC(=O)[C@H](Cc1ccc(Cl)cc1)NC(=O)[C@@H](NC(=O)[C@H](C)NC(=O)[C@H](CC(=O)O)NC(=O)[C@@H](CCCNC(=N)N)NC(=O)[C@H](Cc1ccc(O)cc1)NC(=O)Cc1ccccc1)[C@@H](C)CC)[C@@H](C)O)C(C)C)[C@@H](C)CC)C(=O)N[C@@H](CO)C(=O)N[C@H](CCCNC(=N)N)C(N)=O [Peptide 10, [PhAc^0, D-Arg^2, Phe(pCl)^6, Abu^15, Arg^16, Nle^27, D-Arg^29]hGH-RH(1–29)NH2] (PhAc-Y[dR]DAI[Phe(4-Cl)]TNSYRKVL[Abu]RLSARKLLQDI[Nle]S[dR]-NH2) | 69 | 46 | 24 | 22 | 75 | – | – | – | – | – | – | – | – | –
– | – | [Nac^0, His^1, D-Arg^2, Phe(pCl)^6, Arg^9, Abu^15, Nle^27, D-Arg^28, Har^29]hGH-RH(1–29)NH2 [Peptide 8] | 100 | 98 | 97 | 90 | 100 | strong and long-lasting inhibition | 74 | 46 | 3.6 ± 0.4 | 8 | 5.5 ± 0.6 | 1 | 5.8 ± 0.7 | 2.3 ± 0.3
– | – | [PhAc^0, D-Arg^2, Phe(pCl)^6, Arg^9, Tyr(Me)^10, Abu^15, Nle^27, D-Arg^28, Har^29]hGH-RH(1–29)NH2 [Peptide 6] | 93 | 97 | 95 | 90 | 93 | – | – | – | – | – | – | – | – | –
– | – | [PhAc^0, D-Arg^2, Phe(pCl)^6, Tyr(Me)^10, Abu^15, D-Arg^27, Arg^28, D-Arg^29]hGH-RH(1–29)NH2 [Peptide 19] | 47 | 59 | 23 | 39 | 58 | – | – | – | – | – | – | – | – | –
– | – | [PhAc^0, His^1, D-Arg^2, Phe(pCl)^6, Arg^9, Abu^15, Nle^27, D-Arg^28, Har^29]hGH-RH(1–29)NH2 [Peptide 7] | 92 | 82 | 77 | 65 | 97 | – | – | – | – | – | – | – | – | –
